Results as given in patent publication US11021628B2, “Coating composition containing methyl cellulose, method for producing the same, and solid preparation” (Shin-Etsu Chemical Co., Ltd., priority 2016, dated 2021).

Test: Dissolution Test, Paddle method, Japanese Pharmacopoeia Sixteenth Edition
Assay type: physicochemical
Details: acetaminophen, water, paddle 100 rpm
Experimental: The coated granules was subjected to the dissolution test in accordance with Dissolution Test, Paddle method in the Japanese Pharmacopoeia Sixteenth Edition at a paddle rotation rate of 100 rpm with water as the test liquid, and the drug concentration was quantitatively determined at a measurement wavelength of 244 nm by using an ultraviolet spectrophotometer (UV-1700, manufactured by Shimadzu Corporation).
As Reference Example 1, the dissolution rates of an acetaminophen powder after 1 minute and 10 minutes are also shown in Table 3.

dissolution ratio after 1 minute (1 minute): 48.0%
dissolution ratio after 10 minutes (10 minutes): 99.6%
SMILES: CC(=O)Nc1ccc(O)cc1 [Ref. Ex. 1, acetaminophen]
